Experimental data from patent publication US20240116985A1, “STAPLED PEPTIDES AND METHODS THEREOF” (priority 2020, published 2024).
Values after ≈ are worked out from the molar mass of the structure shown. Like-named read-outs stand apart in the source and are kept apart here.

Assays:
[1] = target: T1, beta-catenin/TCF4 engagement (Homo sapiens, UniProt P35222); experiment: Nano-BRET target engagement assay (B-cat-Halo & TCF4-Luc in HEK293 cells); assay type: cell-based; conditions: read-out: NanoBRET Abs IC50
T1 construct: expressed in transfected cells; host or cells: HEK293
T1 sequence (P35222 1-781): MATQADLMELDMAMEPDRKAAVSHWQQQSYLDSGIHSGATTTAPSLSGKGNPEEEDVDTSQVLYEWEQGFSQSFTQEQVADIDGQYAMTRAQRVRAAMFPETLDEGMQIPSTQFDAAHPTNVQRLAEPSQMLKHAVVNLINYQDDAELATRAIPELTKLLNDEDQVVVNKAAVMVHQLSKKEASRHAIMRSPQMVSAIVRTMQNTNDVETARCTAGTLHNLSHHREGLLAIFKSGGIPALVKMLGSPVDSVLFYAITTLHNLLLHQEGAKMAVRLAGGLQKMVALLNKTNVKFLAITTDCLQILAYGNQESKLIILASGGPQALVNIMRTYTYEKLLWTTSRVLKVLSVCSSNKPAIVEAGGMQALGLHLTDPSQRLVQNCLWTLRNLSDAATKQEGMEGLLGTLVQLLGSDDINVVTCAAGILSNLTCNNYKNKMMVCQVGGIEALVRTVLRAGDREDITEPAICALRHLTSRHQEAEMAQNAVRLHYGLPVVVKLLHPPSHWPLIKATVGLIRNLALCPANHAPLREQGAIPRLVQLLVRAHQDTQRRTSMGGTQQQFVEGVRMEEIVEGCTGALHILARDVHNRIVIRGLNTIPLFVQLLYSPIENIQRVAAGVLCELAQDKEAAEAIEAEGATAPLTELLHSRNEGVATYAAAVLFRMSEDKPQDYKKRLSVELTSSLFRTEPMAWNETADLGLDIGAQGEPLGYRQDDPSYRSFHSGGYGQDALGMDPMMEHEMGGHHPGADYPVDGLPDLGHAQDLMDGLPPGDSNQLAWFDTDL

[2] = CHI Log D procedure; assay type: physicochemical; conditions: pH 7.4, CHI Log D
[3] = Solubility in PBS; assay type: physicochemical
Procedure, shortened: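 Steps: ultracentrifuge the peptide PBS solution, inject the supernatant on HPLC, inject a 50 μM peptide DMSO solution as reference, then calculate solubility as area ratio (PBS/DMSO) × 50 uM.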

[4] = target: T2, full-length beta-Catenin (Uniprot ID P35222) (Homo sapiens, UniProt P35222); experiment: Fluorescence polarization IC50 (beta-catenin / 5FAM-TCF4 10-53 competition); assay type: binding; conditions: read-out: beta-Catenin FP IC50
T2 construct: 10 nM full-length beta-Catenin (Uniprot ID P35222)
T2 sequence (P35222 1-781): T1 sequence (P35222 1-781)

IC50 [1] [µM] | chromatographic logD [2] | Solubility ([3]; Solubility (uM)) [µM] | IC50 [4] [µM] | Solubility [3] [µM] | Compound
4.8 | 2.3 | – | 0.006 | 10 (≈ 19.3 µg/mL) | CC(=O)N1CCC[C@]12CC=CCCCC1(CCCC=CCCCOC(=O)N3CC[C@@](C(=O)N[C@@H](Cc4ccsc4)C(=O)N[C@@H](Cc4csc5ccccc45)C(=O)N[C@@H](Cc4c[nH]cn4)C(N)=O)(C3)NC(=O)[C@H](CC(C)C)NC(=O)[C@H](Cc3ccccc3)NC(=O)[C@H](C)NC(=O)[C@H](C)NC(=O)[C@H](CC(=O)O)NC(=O)[C@H](CC(=O)O)NC1=O)NC(=O)[C@H](CC(C)(C)C)NC(=O)[C@H](CC(=O)O)NC2=O (stereo partly drawn) [I-802, Ac-PL3-Asp-Npg-B5-Asp-Asp-Ala-Ala-Phe-Leu-PyrS2-3Thi-BztA-His-NH2]
13.5 | 2.11 | 44 (≈ 84.2 µg/mL) | 0.005 | – | CC(=O)N1CCC[C@]12CC=CCCCC1(CCCC=CCCCOC(=O)N3CC[C@@](C(=O)N[C@@H](Cc4ccsc4)C(=O)N[C@@H](Cc4csc5ccccc45)C(=O)N[C@@H](Cc4c[nH]cn4)C(N)=O)(C3)NC(=O)[C@H](CCO)NC(=O)[C@H](Cc3ccccc3)NC(=O)[C@H](C)NC(=O)[C@H](C)NC(=O)[C@H](CC(=O)O)NC(=O)[C@H](CC(=O)O)NC1=O)NC(=O)[C@H](CC(C)(C)C)NC(=O)[C@H](CC(=O)O)NC2=O (stereo partly drawn) [I-804, Ac-PL3-Asp-Npg-B5-Asp-Asp-Ala-Ala-Phe-Hse-PyrS2-3Thi-BztA-His-NH2]
21.6 | 2.04 | 37 (≈ 72.9 µg/mL) | 0.005 | – | CC(=O)N1CCC[C@]12CC=CCCCC1(CCCC=CCCCOC(=O)N3CC[C@@](C(=O)N[C@@H](Cc4ccsc4)C(=O)N[C@@H](Cc4csc5ccccc45)C(=O)N[C@@H](Cc4c[nH]cn4)C(N)=O)(C3)NC(=O)[C@H](CCCNC(N)=O)NC(=O)[C@H](Cc3ccccc3)NC(=O)[C@H](C)NC(=O)[C@H](C)NC(=O)[C@H](CC(=O)O)NC(=O)[C@H](CC(=O)O)NC1=O)NC(=O)[C@H](CC(C)(C)C)NC(=O)[C@H](CC(=O)O)NC2=O (stereo partly drawn) [I-806, Ac-PL3-Asp-Npg-B5-Asp-Asp-Ala-Ala-Phe-Cit-PyrS2-3Thi-BztA-His-NH2]
20.9 | 2.17 | 28 (≈ 54 µg/mL) | 0.007 | – | CC(=O)N1CCC[C@]12CC=CCCCC1(CCCC=CCCCOC(=O)N3CC[C@@](C(=O)N[C@@H](Cc4ccsc4)C(=O)N[C@@H](Cc4csc5ccccc45)C(=O)N[C@H](Cc4c[nH]cn4)C(N)=O)(C3)NC(=O)[C@H](CC(N)=O)NC(=O)[C@H](Cc3ccccc3)NC(=O)[C@H](C)NC(=O)[C@H](C)NC(=O)[C@H](CC(=O)O)NC(=O)[C@H](CC(=O)O)NC1=O)NC(=O)[C@H](CC(C)(C)C)NC(=O)[C@H](CC(=O)O)NC2=O (stereo partly drawn) [I-813, Ac-PL3-Asp-Npg-B5-Asp-Asp-Ala-Ala-Phe-Asn-PyrS2-3Thi-BztA-dHis-NH2]

Continued, compound first:

Compound | IC50 [1] [µM] | chromatographic logD [2] | Solubility ([3]; Solubility (uM)) [µM] | IC50 [4] [µM] | Solubility [3] [µM]
CC(=O)N1CCC[C@]12CC=CCCCC1(CCCC=CCCCOC(=O)N3CC[C@@](C(=O)N[C@@H](Cc4cccc5ccccc45)C(=O)N[C@@H](Cc4csc5ccccc45)C(=O)N[C@@H](Cc4c[nH]cn4)C(N)=O)(C3)NC(=O)[C@H](CC(N)=O)NC(=O)[C@H](Cc3ccccc3)NC(=O)[C@H](C)NC(=O)[C@H](C)NC(=O)[C@H](CC(=O)O)NC(=O)[C@H](CC(=O)O)NC1=O)NC(=O)[C@H](CC(C)(C)C)NC(=O)[C@H](CC(=O)O)NC2=O (stereo partly drawn) [I-794, Ac-PL3-Asp-Npg-B5-Asp-Asp-Ala-Ala-Phe-Asn-PyrS2-1NapA-BztA-His-NH2] | 26.4 | 2.38 | 40 (≈ 78.8 µg/mL) | 0.019 | –
CC(=O)N1CCC[C@]12CC=CCCCC1(CCCC=CCCCOC(=O)N3CC[C@@](C(=O)N[C@@H](Cc4ccsc4)C(=O)N[C@@H](Cc4csc5ccccc45)C(=O)N[C@@H](CCC(N)=O)C(N)=O)(C3)NC(=O)[C@H](CCCNC(N)=O)NC(=O)[C@H](Cc3ccccc3)NC(=O)[C@H](C)NC(=O)[C@H](C)NC(=O)[C@H](CC(=O)O)NC(=O)[C@H](CC(=O)O)NC1=O)NC(=O)[C@H](CC(C)(C)C)NC(=O)[C@H](CC(=O)O)NC2=O (stereo partly drawn) [I-805, Ac-PL3-Asp-Npg-B5-Asp-Asp-Ala-Ala-Phe-Cit-PyrS2-3Thi-BztA-Gln-NH2] | 18.5 | 1.98 | – | 0.005 | 50 (≈ 98.1 µg/mL)
CC(=O)N1CCC[C@]12CC=CCCCC1(CCCC=CCCCOC(=O)N3CC[C@@](C(=O)N[C@@H](Cc4ccsc4)C(=O)N[C@@H](Cc4csc5ccccc45)C(=O)N[C@@H](Cc4c[nH]cn4)C(N)=O)(C3)NC(=O)[C@H](Cc3ccccc3)NC(=O)[C@H](Cc3ccccc3)NC(=O)[C@H](C)NC(=O)[C@H](C)NC(=O)[C@H](CC(=O)O)NC(=O)[C@H](CC(=O)O)NC1=O)NC(=O)[C@H](CC(C)(C)C)NC(=O)[C@H](CC(=O)O)NC2=O (stereo partly drawn) [I-808, Ac-PL3-Asp-Npg-B5-Asp-Asp-Ala-Ala-Phe-Phe-PyrS2-3Thi-BztA-His-NH2] | 4.4 | 2.34 | – | 0.005 | 10 (≈ 19.6 µg/mL)
CC(=O)N1CCC[C@]12CC=CCCCC1(CCCC=CCCCOC(=O)N3CC[C@@](C(=O)N[C@@H](Cc4ccsc4)C(=O)N[C@@H](Cc4csc5ccccc45)C(=O)N[C@@H](Cc4c[nH]cn4)C(N)=O)(C3)NC(=O)[C@H]([C@@H](C)O)NC(=O)[C@H](Cc3ccccc3)NC(=O)[C@H](C)NC(=O)[C@H](C)NC(=O)[C@H](CC(=O)O)NC(=O)[C@H](CC(=O)O)NC1=O)NC(=O)[C@H](CC(C)(C)C)NC(=O)[C@H](CC(=O)O)NC2=O (stereo partly drawn) [I-810, Ac-PL3-Asp-Npg-B5-Asp-Asp-Ala-Ala-Phe-Thr-PyrS2-3Thi-BztA-His-NH2] | 18 | 2.17 | 39 (≈ 74.7 µg/mL) | 0.006 | –
CC(=O)N1CCC[C@]12CC=CCCCC1(CCCC=CCCCOC(=O)N3CC[C@@](C(=O)N[C@@H](Cc4cscn4)C(=O)N[C@@H](Cc4csc5ccccc45)C(=O)N[C@@H](CCC(N)=O)C(N)=O)(C3)NC(=O)[C@H](CC(N)=O)NC(=O)[C@H](Cc3ccccc3)NC(=O)[C@H](C)NC(=O)[C@H](C)NC(=O)[C@H](CC(=O)O)NC(=O)[C@H](CC(=O)O)NC1=O)NC(=O)[C@H](CC(C)(C)C)NC(=O)[C@H](CC(=O)O)NC2=O (stereo partly drawn) [I-811, Ac-PL3-Asp-Npg-B5-Asp-Asp-Ala-Ala-Phe-Asn-PyrS2-4Thz-BztA-Gln-NH2] | > 20 | 1.68 | 43 (≈ 82.5 µg/mL) | 0.032 | –
CC(=O)N1CCC[C@]12CC=CCCCC1(CCCC=CCCCOC(=O)N3CC[C@@](C(=O)N[C@@H](Cc4ccsc4)C(=O)N[C@@H](Cc4csc5ccccc45)C(=O)N[C@@H](CC(N)=O)C(N)=O)(C3)NC(=O)[C@H](CC(N)=O)NC(=O)[C@H](Cc3ccccc3)NC(=O)[C@H](C)NC(=O)[C@H](C)NC(=O)[C@H](CC(=O)O)NC(=O)[C@H](CC(=O)O)NC1=O)NC(=O)[C@H](CC(C)(C)C)NC(=O)[C@H](CC(=O)O)NC2=O (stereo partly drawn) [I-816, Ac-PL3-Asp-Npg-B5-Asp-Asp-Ala-Ala-Phe-Asn-PyrS2-3Thi-BztA-Asn-NH2] | 13.7 | 2.05 | 46 (≈ 87.6 µg/mL) | 0.005 | –
